Entries after “also recorded” stand apart in the source; their conditions may differ. Where a name gives a salt, the structure may show the parent alone.
How the values were obtained:
Male Sprague Dawley rats = experiment: Brennan surgical pain model (mechanical allodynia by von Frey filaments, mechanical hyperalgesia by pin-prick test); type: in vivo, rat; conditions: for Efficacy for reduction of post-surgical pain at a surgical wound site: in the oxidized regenerated cellulose-based system, MPE greater than 30 percent considered efficacious
Procedure: In order to evaluate the analgesic efficacy of the composition containing oxidized regenerated cellulose particles dry blended with an NSAID powder (diclofenac sodium), the Brennan surgical pain model was used (Characterization of a rat model of incisional pain, Brennan, T. J., et al., Pain: 64 (1996); 493-501). The model was performed as follows. Male Sprague Dawley rats weighing 250-300 grams were used throughout the experiment. Prior to surgery, each animal was habituated to the testing environment and a baseline response to Semmes-Weinstein (von Frey) filaments was established. Animals were anesthetized using a fresh mixture of xylazine and ketamine containing 100 mg ketamine/ml and 20 mg xylazine/ml. Each animal was injected intramuscularly with 1 ml/kg to achieve surgical anesthesia. The left hind paw was aseptically prepared and a 1 cm incision through the skin and fascia was made on the plantar surface of the hind paw, extending from the ankle distally. The middle digital tendon was isolated and crushed using mosquito hemostats for 20 seconds. Following surgery animals were tested for mechanical sensitivity at 4, 24, 48, 72 and 96 hours following surgery.
Ten rats were evaluated in each of the following groups:
Group 1. Control group: all animals were given intraperitoneal (IP) injections of saline (1 ml/kg) 1 hour before testing for mechanical allodynia and hyperalgesia.
This equates to a total of 1 mg of diclofenac sodium or approximately 4 mg/kg for a 250 g animal.
Group 3: Immediately post-tendon crush, a single dose (20 mg of micronized oxidized regenerated cellulose with an approximate particle size of 20-25 microns blended with […]) was mixed with 100 microliters of a sterile saline solution. The composition was then applied to the site of the crushed tendon.
This equates to a total of 0.5 mg of diclofenac sodium or approximately 2 mg/kg for a 250 g animal. […]
This equates to a total of 2.0 mg of diclofenac sodium or approximately 8 mg/kg for a 250 g animal.
The pin-prick test was used to assess mechanical hyperalgesia. Briefly, a blunted safety pin was used to gently tent the plantar skin of each hind paw without breaking the skin. A stopwatch was used to measure the withdrawal time following this stimulus. Increased withdrawal time (in seconds) was interpreted as mechanical hyperalgesia.
Mechanical sensitivity or mechanical allodynia from each time point was normalized against the negative control group and against each individual animal's pre-surgical mechanical sensitivity. Mechanical sensitivity was assessed using a procedure described by Chaplan et al. (J. Neurosci. Methods 1994, 53: 55-63). A series of von Frey filaments of varying rigidity strength (typically eight filaments in the series) were applied to the plantar surface of the hind paw ipsilateral to the ligations with just enough force to bend the filament. […] A positive allodynic response consists of lifting the affected paw followed immediately by licking or shaking of the paw. The order and frequency with which the filaments were applied was determined using the Dixon up-down method. Testing was initiated with the middle filament of the series with subsequent filaments being applied in consecutive fashion, ascending or descending, depending on whether a negative or positive response, respectively, was obtained with the initial filament.
Results are expressed as percent of Maximal Potential Efficacy (% MPE).

[1] = Pharmacokinetic evaluation of diclofenac release in a rat model (plasma and incision-site tissue, LC/MS/MS); type: in vivo
Procedure: Pharmacokinetic studies in a rat model were conducted to determine the rate of diclofenac release from the composition. Male Sprague Dawley rats (four rats per time point per group) were anesthetized with isoflurane and subjected to a single surgical incision on the plantar surface of the left hind paw. The medial tendon was exposed by blunt dissection and subjected to a 20 second clamp using a mosquito hemostat.
In Group 1 the incision was sutured closed following manipulation of the tendon. The rats were administered an intraperitoneal injection of 5 mg/kg Diclofenac (as sodium salt, saline vehicle) 4 hours and 23 hours post-surgery. Blood and tissue samples were harvested at 0.25, 1, 4 and 6 hours after the second dose.
In Group 2, oxidized regenerated cellulose (Surgicel® Fibrillar absorbable hemostat) was implanted between the tendon and the metatarsals and 0.5 mg of Diclofenac (as sodium salt, saline vehicle) was instilled directly into the wound site and the incision was sutured closed. Blood samples were taken at 0.25,1, 4, 6, 24 and 48 hours post surgery.
Blood was harvested into K-EDTA tubes via cardiac puncture while the rats were anesthetized with isoflurane. Rats were terminated immediately after the blood draw by CO2 inhalation, and the skin, muscle fascia and tendon of the left hind paw incision site were harvested. The contralateral tissue of the right hind paw was harvested and retained separately.
Blood samples were centrifuged to yield plasma, the resulting plasma as well as tissue samples were sent to Covance, Madison Wis. for LC/MS/MS analysis of diclofenac. Briefly, the analytical method involves extracting ˜50 mg of tissue or 50 uL of plasma w/acetonitrile; the residue of the ACN extract is analyzed by tandem mass spectroscopy. The dynamic ranges of the plasma and tissue assays were 25 to 12,500 ng/mL and 25 to 12,500 ng/g, respectively.

[2] = Micronized (20–25 um) oxidized regenerated cellulose, dry/powder, 1 mg
[3] = Surgicel Fibrillar absorbable hemostat 6 × 6 mm, solution, 0.5 mg
[4] = Surgicel Fibrillar absorbable hemostat 6 × 6 mm, solution, 1.0 mg

O=C(O)Cc1ccccc1Nc1c(Cl)cccc1Cl [DCF Free acid, 2-((2,6-ichlorophenyl)amino)benzeneacetic acid]
Efficacy for reduction of post-surgical pain at a surgical wound site (Male Sprague Dawley rats): surprisingly efficacious
Diclofenac concentrations at the surgical site ([1]; after local administration of composition containing oxidized regenerated cellulose and diclofenac, FIG. 3A): remaining relatively high; also recorded: remained relatively high
Tissue concentrations of diclofenac ([1]; intraperitoneal injection of diclofenac solution, FIG. 3A): rapid decline
Plasma concentrations of diclofenac, local administration compared with systemic administration ([1]; local administration from the composition, FIG. 3B): much lower

O=C(O)Cc1ccccc1Nc1c(Cl)cccc1Cl [DCF Sol'n, 2-[(2,6-dichlorophenyl)amino]-Benzeneacetic acid, monosodium salt]
Period of analgesia (Male Sprague Dawley rats; 6 mm×6 mm Surgicel Fibrillar oxidized regenerated cellulose plus diclofenac sodium and saline): 48 h
Benefit at 72 hours (Male Sprague Dawley rats; 6 mm×6 mm Surgicel Fibrillar oxidized regenerated cellulose plus diclofenac sodium and saline, 72 hours): smaller benefit
Efficacy (duration of analgesic effect) (Male Sprague Dawley rats; Interceed absorbable adhesion barrier 6 × 6 mm, solution, 0.5 mg): 48 h
Efficacy (duration of analgesic effect) (Male Sprague Dawley rats; Intraplantar injection, solution, 0.5 mg): 4 h
Efficacy (duration of analgesic effect) (Male Sprague Dawley rats; [2]): 72 h
Efficacy (duration of analgesic effect) (Male Sprague Dawley rats; Micronized (20–25 um) oxidized regenerated cellulose, solution, 1.0 mg, applied at crushed tendon): 72 h
Significant increase in analgesic effect, through (Male Sprague Dawley rats; Micronized oxidized regenerated cellulose (20-25 micron) mixed with diclofenac sodium and saline): 72 h
Effect at 96 hours (Male Sprague Dawley rats; Micronized oxidized regenerated cellulose (20-25 micron) mixed with diclofenac sodium and saline, 96 hours): some effect
Efficacy (duration of analgesic effect) (Male Sprague Dawley rats; Repeated IPL injec., solution, 0.5 mg): 4 h
Efficacy (duration of analgesic effect) (Male Sprague Dawley rats; [3]): 48 h
Efficacy (duration of analgesic effect) (Male Sprague Dawley rats; [4]): 48 h

COc1ccc2c(c1)c(CC(=O)O)c(C)n2C(=O)c1ccc(Cl)cc1 [Inodmethacin Sol'n, indomethacin]
Efficacy (duration of analgesic effect) (Male Sprague Dawley rats; [3]): Ineffective
Efficacy for reduction of post-surgical pain at a surgical wound site (Male Sprague Dawley rats): neither indomethacin nor ketoprofen is efficacious

CC(C(=O)O)c1cccc(C(=O)c2ccccc2)c1 (stereo not drawn) [Ketoprofen Sol'n, ketoprofen]
Efficacy (duration of analgesic effect) (Male Sprague Dawley rats; [3]): Ineffective
Efficacy for reduction of post-surgical pain at a surgical wound site (Male Sprague Dawley rats): neither indomethacin nor ketoprofen is efficacious

Cc1cccc(C)c1NC(=O)C1CCCCN1C (stereo not drawn) [Mepiv Sol'n, mepivacaine hydrochloride]
Efficacy (duration of analgesic effect) (Male Sprague Dawley rats; Intraplantar injection, solution, 1.0 mg): 4 h
Efficacy (duration of analgesic effect) (Male Sprague Dawley rats; [2]): Ineffec-
Efficacy (duration of analgesic effect) (Male Sprague Dawley rats; Repeated IPL injec., solution, 1.0 mg): 72+ Hrs
Efficacy (duration of analgesic effect) (Male Sprague Dawley rats; [4]): 4 Hrs effect

COc1cccc(C2(O)CCCCC2CN(C)C)c1 (stereo not drawn) [Tramadol Sol'n, tramadol]
Efficacy (duration of analgesic effect) (Male Sprague Dawley rats; Surgicel Fibrillar absorbable hemostat 6 × 6 mm, solution, 2 mg): 24 h

— US8129359B2, “Composition and method for treating post-surgical pain” (Ethicon, Inc., priority 2004, dated 2012)
